Test results published in patent US20250295655A1, “BRUTON'S KINASE INHIBITORS FOR THE TREATMENT OF A SUDDEN ALLERGIC REACTION” (ALK-ABELLÓ A/S, priority 2022, published 2025).

Experiments:
basophils = experiment: Basophil activation (CD63 FACS) after allergen stimulation, BTKi added before or after; type: cell-based, human; details: BTKi 1000 or 5000 nM added before or 1, 5, 15, 30 min after allergen stimulation; vs water control
Description: PBMCs were isolated from heparinized blood using Leucoseptubes (Greiner 227390) with Lymfoprep (Fresenius Kabi 1114547). Following isolation, the cells were washed and resuspended in RPMI 0.5% HSA (RPMI 1640 Gibco 72400-021, HSA Sigma A8763) to 0.25× original blood volume. 2 ng/ml of cytokine IL-3 (RD Peprotec cat nr 200-03) was added to the cells for Basophil priming with final 1 ng/ml. 50 μl of the cell suspension was used for each test, corresponding to 200 μl blood.
The test can be carried out with any BTKi. In the present example, the following BTKis were tested: • Acalabrutinib (Cat A-7337, 100 mM in DMSO) was diluted in RPMI 0.5% HSA to a concentration of 10,000 and 2,000 nM. • Ibrutinib was diluted in RPMI 0.5% HSA to a concentration of 20.000, 5.000 and 1.000 nM. • Branebrutinib was diluted in RPMI 0.5% HSA to a concentration of 20.000 and 5.000 nM. • Remibrutinib was diluted in RPMI 0.5% HSA to a concentration of 20.000 and 5.000 nM. • Pirtobrutinib was diluted in RPMI 0.5% HSA to a concentration of 20.000 and 5.000 nM.
Allergens: Grass pollen extract of the species Phleum pratense (ALK) was diluted in RPMI 0.5%-HSA to five concentrations of 100, 10, 1.0, 0.1 and 0.01 ng/ml. House dust mite allergen extract of the species Dermatophagoides pterinussinus (Derp ex) were made in concentrations of 0.1, 1 and 10 ug/ml by dilution in RPMI 0.5% HSA.
The experiment was performed in 96 deep-well plates. 50 μl cell suspension (as described above) was added to each well. 50 μl activation stimuli and 100 μl BTK inhibitor or buffer were added at different time points (t=0 min, 5 min, 15 min or 30 min). Following addition of the components, the plate was incubated at 37° C. water bath for one hour. After incubation, the activation was stopped by adding 500 μl FACS FLOW (BD342003), 0.5% BSA (Fisher scientific BP9703-100)+10 mM EDTA (Invitrogen 15575-038). The plate was centrifuged for 5 min, at 600×G and 4° C. Supernatants were harvested and used for measurement of histamine by ELISA (supplier). Cell pellets were further washed and stained for FACS analysis with CD63 FITC (BD 557288) CD203c APC (e-bio) and CD123 PE (BD340545) using standard FACS staining procedure, 30 min on ice protected from light, followed by fixation with Cell Fix (BD) before analysis on Fortessa flowcytometer. Flowcytometer data was analyzed using FlowJo software and statistical data from here used for data analysis.

basophil cells = details: pretreatment of basophil cells before allergen exposure; cited from earlier work
ex-vivo blood basophils = details: leukemia patient treated with ibrutinib; cited from earlier work
[1] = system: mast cell and basophil reactivity to food; details: ibrutinib daily for up to seven days before allergen exposure; cited from earlier work
JAK2/STAT3 pathway = details: cited from earlier work

Row | SMILES | activation of cells after stimulation with an allergen (percent activation of basophils) (basophils) | IgE-mediated histamine release (basophil cells) | IgE-dependent histamine release in ex-vivo blood basophils (ex-vivo blood basophils) | mast cell and basophil reactivity to food (SPT, BAT) [1] | inhibition of JAK2/STAT3 pathway induced by Concavalin A (JAK2/STAT3 pathway)
1 | CC#CC(=O)N[C@H]1CCCN(c2c(F)cc(C(N)=O)c3[nH]c(C)c(C)c23)C1 [Branebrutinib, 4-[(3S)-3-(but-2-ynoylamino)piperidin-1-yl]-5-fluoro-2,3-dimethyl-1H-indole-7-carboxamide] | able to decrease the activation of cells | – | – | – | –
2 | C=CC(=O)N1CCC[C@@H](n2nc(-c3ccc(Oc4ccccc4)cc3)c3c(N)ncnc32)C1 [Ibrutinib, 1-[(3R)-3-[4-amino-3-(4-phenoxyphenyl)-1H-pyrazolo[3,4-d]pyrimidin-1-yl]-1-piperidinyl]-2-propen-1-one] | able to decrease the activation of cells | inhibit IgE-mediated histamine release | largely suppressed | can reduce mast cell and basophil reactivity | able to inhibit
3 | COc1ccc(F)cc1C(=O)NCc1ccc(-c2nn([C@@H](C)C(F)(F)F)c(N)c2C(N)=O)cc1 [Pirtobrutinib, 5-amino-3-[4-[[(5-fluoro-2-methoxybenzoyl)amino]methyl]phenyl]-1-[(2S)-1,1,1-trifluoropropan-2-yl]pyrazole-4-carboxamide] | able to decrease the activation of cells | – | – | – | –
4 | C=CC(=O)N(C)CCOc1c(N)ncnc1-c1cc(F)cc(NC(=O)c2ccc(C3CC3)cc2F)c1C [Remibrutinib, N-[3-[6-amino-5-[2-[methyl(prop-2-enoyl)amino]ethoxy]pyrimidin-4-yl]-5-fluoro-2-methylphenyl]-4-cyclopropyl-2-fluorobenzamide] | able to decrease the activation of cells | – | – | – | –
